Assay results published in ChEMBL document CHEMBL5143640, “Diverse Sesquiterpenoids and Polyacetylenes from Atractylodes lancea and Their Anti-Osteoclastogenesis Activity” (J Nat Prod, 2022).

Tests used:
[1] = test system: BMDM; test: Anti-osteoclastogensis activity C57BL/6 mouse bone marrow macrophages assessed as inhibition of RANKL-induced osteoclastogenesis by measuring osteoclasts size at 1 to 10 uM and measured after 5 days in presence of M-CSF by TRAP staining based assay; assay type: functional, cell-based; settings: dose 1-10 µM, time 5.0 day, DDE = dose-dependent effect
[2] = test system: BMDM; test: Anti-osteoclastogensis activity C57BL/6 mouse bone marrow macrophages assessed as inhibition of RANKL-induced osteoclastogenesis by measuring osteoclasts number at 1 to 10 uM and measured after 5 days in presence of M-CSF by TRAP staining based assay; assay type: functional, cell-based; settings: dose 1-10 µM, time 5.0 day, DDE = dose-dependent effect
[3] = test system: BMDM; test: Cytotoxicity against C57BL/6 mouse bone marrow macrophages assessed as reduction in cell viability at 10 uM incubated for 48 hrs in presence of M-CSF by CCK8 assay; assay type: toxicity, cell-based
[4] = Anti-osteoclastogensis activity C57BL/6 mouse bone marrow macrophages assessed as inhibition of RANKL-induced osteoclastogenesis and measured after 5 days in presence of M-CSF by TRAP staining based assay; assay type: functional, cell-based; settings: bmdm

Row | Structure (SMILES) | Activity [1] | Activity [2] | Activity [3] | IC50 [4] [µM]
1 | CC(=O)OCCC(/C=C/C=C/C#CC#C/C=C/CO)OC(C)=O (stereo not drawn) | Dde | Dde | Non-Toxic | 1.3
2 | OC/C=C/C#CC#C/C=C/c1ccco1 | Dde | Dde | Non-Toxic | 0.64
